Assay [1] deals with D. melanogaster MUTANT strain (dhr96_hairpin / GAL4-arm, reduced dhr96 expression). The assay can be described thus: Topical application bioassay on adult females, dhr96 knockdown mutant strain. The note with it: 50 ppm topical application, at 5 hours, 3 independent experiments. It is filed as in vivo, Drosophila melanogaster. The method, then:
(§1) For testing on adults by topical application of compounds, a method has been adapted from Dapkus (Drosophila Information Newsletter, Volume 1, January 1991; http://jfly.iam.u-tokyo.ac.jp/html/din/DIN_Vol_01—9101.txt). 0-3 day old adult D. melanogaster females are anaesthetised using CO2, and 0.4 uL of compound dissolved in acetone is applied to the abdomens of these females using a Hamilton pipette. After compound application, the flies are cultured under normal conditions for the required time intervals, and either visually assessed (as in Example 6.2) or harvested for chemical analysis (Example 7). Ideally the experiment is repeated on 3 separate ocassions
(§2) The effects of the compounds on the whole insects (larvae and adults) are monitored by visual assessment, daily or at a frequency as required. In one type of assessment, the mortality of the insects over time is scored. For example, if the adult test is used, the insects are monitored at time points that have been determined previously to be suitable for the experiment. The number of dead flies at each time point is scored.
(§3) Bioassays are carried out as described above. In one example, the insecticide Malathion was applied to 20 females at a dose of 50 ppm per time point to be assessed, according to the topical application method described above. […]

The test system of assay [2] is D. melanogaster control strains (CONTROL 1, CONTROL 2). The assay can be described thus: Topical application bioassay on adult females, control strains. In kind it is in vivo, Drosophila melanogaster. The note with it: 50 ppm topical application, by 5 hours, 3 independent experiments. The method, then: as §1, §2, §3

Molecules are shown by their SMILES.

For the compound `CCOC(=O)CC(SP(=S)(OC)OC)C(=O)OCC` (centres unmarked) [Malathion], in assay [1], the mortality entry was “no or significantly reduced mortality”. In addition, in assay [2], the percentage mortality is ≥ 95%.

The record behind these values is patent US20090031433A1, “METHODS FOR SCREENING INSECTICIDES” (priority 2004, published 2009).
